We go through 29 compounds from US11524938B2, “Aromatic sulfonamide derivatives” (Bayer Pharma Aktiengesellschaft, priority 2016, dated 2022).

The structures appear in SMILES notation.

This test has as its target T1, human P2X4 (Homo sapiens, UniProt Q99571).
T1 sequence (Q99571 1-388): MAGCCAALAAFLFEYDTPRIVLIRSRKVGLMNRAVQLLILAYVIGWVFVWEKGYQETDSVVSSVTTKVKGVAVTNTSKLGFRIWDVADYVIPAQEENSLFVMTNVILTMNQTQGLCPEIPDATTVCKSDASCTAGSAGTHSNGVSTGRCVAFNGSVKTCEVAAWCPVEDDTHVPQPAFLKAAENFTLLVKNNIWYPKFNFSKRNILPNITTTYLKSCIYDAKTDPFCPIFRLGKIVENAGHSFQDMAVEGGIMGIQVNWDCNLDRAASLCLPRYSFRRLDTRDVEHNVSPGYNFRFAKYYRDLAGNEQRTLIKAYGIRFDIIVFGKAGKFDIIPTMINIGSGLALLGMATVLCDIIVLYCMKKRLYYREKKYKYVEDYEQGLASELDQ
Description: Human P2X4 HEK Cell FLIPR Assay. As to conditions: agonist Bz-ATP at EC80; for Emax: HEK293, HEK293 cells, percentage of maximal inhibition, read-out: Human P2X4 HEK Cells (FLIPR Assay) avg Efficacy [%]; for IC50: HEK293 cells, individual values listed where some fall outside detection range. The test is classed as cell-based. The gist of the method:
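Calcium flux read by FLIPR for 120 sec after Bz-ATP challenge at EC80 (established each assay day), following 30 min room-temperature compound preincubation in dye-loaded stable human P2X4 HEK293 cells. Peak RFU over basal normalized to agonist control; IC50, maximal inhibition and Hill coefficient from triplicate means.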

As to `Cc1ccccc1CC(=O)Nc1ccc(-n2cc(C#N)cn2)c(S(N)(=O)=O)c1` [Example 197, N-[4-(4-Cyano-1H-pyrazol-1-yl)-3-sulfamoylphenyl]-2-(2-methylphenyl)acetamide], the Emax was 87% and the IC50 amounted to 86 nM.
On to `Cc1cccc(CC(=O)Nc2ccc(-n3cc(C#N)cn3)c(S(N)(=O)=O)c2)c1` [Example 198, N-[4-(4-Cyano-1H-pyrazol-1-yl)-3-sulfamoylphenyl]-2-(3-methylphenyl)acetamide], for which the Emax worked out at 94% and the IC50 is 136 nM.
For the compound `CCOc1ccccc1CC(=O)Nc1ccc(-n2cc(C#N)cn2)c(S(N)(=O)=O)c1` [Example 199, N-[4-(4-Cyano-1H-pyrazol-1-yl)-3-sulfamoylphenyl]-2-(2-ethoxyphenyl)acetamide], the Emax is 85% and the IC50 is 299 nM.
In the same order, the values of `N#Cc1cnn(-c2ccc(NC(=O)Cc3cccc(F)c3F)cc2S(N)(=O)=O)c1` [Example 200, N-[4-(4-Cyano-1H-pyrazol-1-yl)-3-sulfamoylphenyl]-2-(2,3-difluorophenyl)acetamide] are 90% and 131 nM.
The like results for `N#Cc1cnn(-c2ccc(NC(=O)Cc3cccnc3Cl)cc2S(N)(=O)=O)c1` [Example 201, 2-(2-Chloropyridin-3-yl)-N-[4-(4-cyano-1H-pyrazol-1-yl)-3-sulfamoylphenyl]-acetamide] were, in that order, 83% and 4330 nM.
For the compound `N#Cc1cnn(-c2ccc(NC(=O)Cc3ccc(F)cc3Cl)cc2S(N)(=O)=O)c1` [Example 202, 2-(2-Chloro-4-fluorophenyl)-N-[4-(4-cyano-1H-pyrazol-1-yl)-3-sulfamoylphenyl]-acetamide], the Emax was determined as 90% and the IC50 was found to be 48 nM.
The like results for `N#Cc1cnn(-c2ccc(NC(=O)Cc3ccccc3OC(F)F)cc2S(N)(=O)=O)c1` [Example 203, N-[4-(4-Cyano-1H-pyrazol-1-yl)-3-sulfamoylphenyl]-2-[2-(difluoromethoxy)phenyl]-acetamide] were, in that order, 86% and 99 nM.
In the case of `N#Cc1cnn(-c2ccc(NC(=O)Cc3ccccc3OC(F)(F)F)cc2S(N)(=O)=O)c1` [Example 204, N-[4-(4-Cyano-1H-pyrazol-1-yl)-3-sulfamoylphenyl]-2-[2-(trifluoromethoxy)phenyl]-acetamide], the Emax came to 86% and the IC50 came to 72 nM.
As to `N#Cc1cnn(-c2ccc(NC(=O)Cc3cc(F)c(F)cc3Cl)cc2S(N)(=O)=O)c1` [Example 205, 2-(2-Chloro-4,5-difluorophenyl)-N-[4-(4-cyano-1H-pyrazol-1-yl)-3-sulfamoylphenyl]-acetamide], the Emax was found to be 89% and the half-maximal inhibitory concentration (IC50) was 73 nM.
For `N#Cc1cnn(-c2ccc(NC(=O)Cc3cccc(C(F)(F)F)c3Cl)cc2S(N)(=O)=O)c1` [Example 206, 2-[2-Chloro-3-(trifluoromethyl)phenyl]-N-[4-(4-cyano-1H-pyrazol-1-yl)-3-sulfamoylphenyl]acetamide], the Emax was found to be 98% and the IC50 came out at 29 nM.
As for `Cc1ccc(F)c(CC(=O)Nc2ccc(-n3cc(C#N)cn3)c(S(N)(=O)=O)c2)c1Cl` [Example 207, 2-(2-Chloro-6-fluoro-3-methylphenyl)-N-[4-(4-cyano-1H-pyrazol-1-yl)-3-sulfamoylphenyl]acetamide], the Emax was found to be 98% and the IC50 was 12 nM.
On to `N#Cc1cnn(-c2ccc(NC(=O)Cc3c(F)ccc(F)c3Cl)cc2S(N)(=O)=O)c1` [Example 208, 2-(2-Chloro-3,6-difluorophenyl)-N-[4-(4-cyano-1H-pyrazol-1-yl)-3-sulfamoylphenyl]-acetamide], for which the Emax amounted to 91% and the IC50 is 33 nM.
Regarding `Cc1ccc(Cl)c(CC(=O)Nc2ccc(-n3cc(C#N)cn3)c(S(N)(=O)=O)c2)c1` [Example 209, 2-(2-Chloro-5-methylphenyl)-N-[4-(4-cyano-1H-pyrazol-1-yl)-3-sulfamoylphenyl]-acetamide], the Emax was 91% and the IC50 was determined as 37 nM.
The like results for `COc1ccc(CC(=O)Nc2ccc(-n3cc(C#N)cn3)c(S(N)(=O)=O)c2)c(Cl)c1` [Example 210, 2-(2-Chloro-4-methoxyphenyl)-N-[4-(4-cyano-1H-pyrazol-1-yl)-3-sulfamoylphenyl]-acetamide] were, in that order, 76% and 116 nM.
Turning to `N#Cc1cnn(-c2ccc(NC(=O)Cc3cc(Cl)ccc3Cl)cc2S(N)(=O)=O)c1` [Example 211, N-[4-(4-Cyano-1H-pyrazol-1-yl)-3-sulfamoylphenyl]-2-(2,5-dichlorophenyl)acetamide], the Emax was found to be 94% and the IC50 turned out to be 75 nM.
With `COc1ccc(Cl)cc1CC(=O)Nc1ccc(-n2cc(C#N)cn2)c(S(N)(=O)=O)c1` [Example 212, 2-(5-Chloro-2-methoxyphenyl)-N-[4-(4-cyano-1H-pyrazol-1-yl)-3-sulfamoylphenyl]-acetamide], the Emax came out at 86% and the IC50 was 149 nM.
Take `CC(C)c1ccccc1CC(=O)Nc1ccc(-n2cc(C#N)cn2)c(S(N)(=O)=O)c1` [Example 213, N-[4-(4-Cyano-1H-pyrazol-1-yl)-3-sulfamoylphenyl]-2-[2-(propan-2-yl)phenyl]-acetamide]: the Emax amounted to 93% and the IC50 was determined as 47 nM.
In the case of `N#Cc1cnn(-c2ccc(NC(=O)Cc3cc(F)ccc3Cl)cc2S(N)(=O)=O)c1` [Example 214, 2-(2-Chloro-5-fluorophenyl)-N-[4-(4-cyano-1H-pyrazol-1-yl)-3-sulfamoylphenyl]-acetamide], the Emax is 86% and the IC50 was 36 nM.
The like results for `N#Cc1cnn(-c2ccc(NC(=O)Cc3c(Cl)cccc3C(F)(F)F)cc2S(N)(=O)=O)c1` [Example 215, 2-[2-Chloro-6-(trifluoromethyl)phenyl]-N-[4-(4-cyano-1H-pyrazol-1-yl)-3-sulfamoylphenyl]acetamide] were, in that order, 95% and 38 nM.
In the same order, the values of `COc1cccc(Cl)c1CC(=O)Nc1ccc(-n2cc(C#N)cn2)c(S(N)(=O)=O)c1` [Example 216, 2-(2-Chloro-6-methoxyphenyl)-N-[4-(4-cyano-1H-pyrazol-1-yl)-3-sulfamoyl-phenyl]acetamide] are 101% and 96 nM.
Consider `N#Cc1cnn(-c2ccc(NC(=O)Cc3c(F)cc(F)cc3Cl)cc2S(N)(=O)=O)c1` [Example 217, 2-(2-Chloro-4,6-difluorophenyl)-N-[4-(4-cyano-1H-pyrazol-1-yl)-3-sulfamoyl-phenyl]acetamide], for which the Emax stood at 84% and the 50% inhibitory concentration (IC50) amounted to 51 nM.
On to `N#Cc1cnn(-c2ccc(NC(=O)Cc3ccncc3Cl)cc2S(N)(=O)=O)c1` [Example 218, 2-(3-Chloropyridin-4-yl)-N-[4-(4-cyano-1H-pyrazol*1-yl)-3-sulfamoyl-phenyl]acetamide], for which the Emax amounted to 92% and the IC50 came out at 957 nM.
In the same order, the values of `N#Cc1cnn(-c2ccc(NC(=O)Cc3ccc(C(F)F)cc3)cc2S(N)(=O)=O)c1` [Example 219, N-[4-(4-Cyano-1H-pyrazol-1-yl)-3-sulfamoylphenyl]-2-[4-(difluoromethyl)-phenyl]acetamide] are 65% and 250 nM.
In the case of `N#Cc1cnn(-c2ccc(NC(=O)C(F)(F)c3ccccc3Cl)cc2S(N)(=O)=O)c1` [Example 220, 2-(2-Chlorophenyl)-N-[4-(4-cyano-1H-pyrazol-1-yl)-3-sulfamoylphenyl]-2,2-difluoroacetamide], the Emax stood at 108% and the IC50 is 276 nM.
Turning to `NS(=O)(=O)c1cc(NC(=O)Cc2ccccc2F)ccc1-c1cncc(C(F)(F)F)c1` [Example 221, 2-(2-Fluorophenyl)-N-{3-sulfamoyl-4-[5-(trifluoromethyl)pyridin-3-yl]phenyl}-acetamide], the Emax amounted to 63% and the IC50 came to 40 nM.
As for `NS(=O)(=O)c1cc(NC(=O)Cc2ccccc2OC(F)(F)F)ccc1-c1cncc(C(F)(F)F)c1` [Example 222, N-{3-Sulfamoyl-4-[5-(trifluoromethyl)pyridin-3-yl]phenyl}-2-[2-(trifluoromethoxy)-phenyl]acetamide], the Emax amounted to 83% and the IC50 turned out to be 92 nM.
The like results for `Cc1ccccc1CC(=O)Nc1ccc(-c2cnn(C(F)F)c2)c(S(N)(=O)=O)c1` [Example 223, N-{4-[1-(Difluoromethyl)-1H-pyrazol-4-yl]-3-sulfamoylphenyl}-2-(2-methylphenyl)-acetamide] were, in that order, 87% and 26 nM.
Take `NS(=O)(=O)c1cc(NC(=O)Cc2ccccc2C(F)(F)F)ccc1-c1cnn(C(F)F)c1` [Example 224, N-{4-[1-(Difluoromethyl)-1H-pyrazol-4-yl]-3-sulfamoylphenyl}-2-[2-(trifluoromethyl)-phenyl]acetamide]: the Emax stood at 94% and the IC50 was 28 nM.
Regarding `NS(=O)(=O)c1cc(NC(=O)Cc2ccccc2C(F)F)ccc1-c1cnn(C(F)F)c1` [Example 225, 2-[2-(Difluoromethyl)phenyl]-N-{4-[1-(difluoromethyl)-1H-pyrazol-4-yl]-3-sulfamoyl-phenyl}acetamide], the Emax is 91% and the IC50 was determined as 70 nM.

One may read the IC50 as the concentration needed to halve the response being measured. Lower therefore signals higher potency.
